Reference: PubChem BioAssay (NCI)
Several values for one entry are separate records, joined by “and”; a condition that tells them apart may be missing. Identical values can stand only once.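 Briefly, cells in 96-well plates were exposed to five compound concentrations for 48 h, and endpoints were estimated by linear interpolation. GI50 marks 50% less growth. Definition used: TGI = concentration required for complete inhibition of growth.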

Tests used:
Assay in all cases: NCI tumour cell line growth inhibition, 48 h
A498 renal = system: A498 renal
HOP-92 NSCLC = system: HOP-92 NSCLC
IGROV1 ovarian = system: IGROV1 ovarian
MALME-3M melanoma = system: MALME-3M melanoma
NCI-H226 lung = system: NCI-H226 lung
NCI-H23 lung = system: NCI-H23 lung
SK-MEL-2 melanoma = system: SK-MEL-2 melanoma
UACC-257 melanoma = system: UACC-257 melanoma
HCT-15 colon = system: HCT-15 colon
HS 578T breast = system: HS 578T breast
M14 melanoma = system: M14 melanoma
OVCAR-5 ovarian = system: OVCAR-5 ovarian
SK-MEL-28 melanoma = system: SK-MEL-28 melanoma
SR leukemia = system: SR leukemia
A549 NSCLC = system: A549 NSCLC
ACHN renal = system: ACHN renal
CCRF-CEM leukemia = system: CCRF-CEM leukemia
COLO 205 colon = system: COLO 205 colon
DU-145 prostate = system: DU-145 prostate
HCT-116 colon = system: HCT-116 colon
HL-60(TB) leukemia = system: HL-60(TB) leukemia
HOP-62 NSCLC = system: HOP-62 NSCLC
KM12 colon = system: KM12 colon
MOLT-4 leukemia = system: MOLT-4 leukemia
NCI-H460 lung = system: NCI-H460 lung
OVCAR-3 ovarian = system: OVCAR-3 ovarian
OVCAR-8 ovarian = system: OVCAR-8 ovarian
PC-3 prostate = system: PC-3 prostate
RPMI-8226 leukemia = system: RPMI-8226 leukemia
RXF 393 renal = system: RXF 393 renal
SF-268 CNS = system: SF-268 CNS
SK-OV-3 ovarian = system: SK-OV-3 ovarian
SNB-75 CNS = system: SNB-75 CNS
SW-620 colon = system: SW-620 colon
U251 CNS = system: U251 CNS
UO-31 renal = system: UO-31 renal
786-0 renal = system: 786-0 renal
MDA-MB-231 breast = system: MDA-MB-231 breast
NCI/ADR-RES ovarian = system: NCI/ADR-RES ovarian
SF-539 CNS = system: SF-539 CNS
SNB-19 CNS = system: SNB-19 CNS
TK-10 renal = system: TK-10 renal

Compound: C/C=C/C[C@@H](C)C(=O)C1C(=O)N[C@@H](C(C)C)C(=O)N(C)CC(=O)N(C)[C@@H](CC(C)C)C(=O)N[C@@H](C(C)C)C(=O)N(C)[C@@H](CC(C)C)C(=O)N[C@@H](C)C(=O)N[C@@H](C)C(=O)N(C)[C@@H](CC(C)C)C(=O)N(C)[C@@H](CC(C)C)C(=O)N(C)[C@@H](C(C)C)C(=O)N1C (some centres not stated)
- GI50 (A498 renal): 50.4 µM
- TGI (A498 renal): 71.5 µM
- TGI (HOP-92 NSCLC): > 20.5 µM
- GI50 (IGROV1 ovarian): 20.8 µM
- TGI (IGROV1 ovarian): 65.6 µM
- GI50 (MALME-3M melanoma): 75.8 µM
- GI50 (NCI-H226 lung): 45.3 µM
- TGI (NCI-H226 lung): 18.4 µM and 83.2 µM
- GI50 (NCI-H23 lung): 47 µM
- TGI (NCI-H23 lung): > 20.5 µM
- GI50 (SK-MEL-2 melanoma): 40.8 µM
- TGI (SK-MEL-2 melanoma): 76.3 µM
- GI50 (UACC-257 melanoma): 45.5 µM
- TGI (UACC-257 melanoma): > 20.5 µM and 67 µM

Compound: COc1ccc2nc3cc(Cl)ccc3c(N)c2c1
- GI50 (HCT-15 colon): 0.713 µM
- TGI (HCT-15 colon): 2.97 µM
- GI50 (HS 578T breast): 2.86 µM
- TGI (HS 578T breast): > 100 µM
- GI50 (M14 melanoma): 1.94 µM
- TGI (M14 melanoma): 3.71 µM
- GI50 (OVCAR-5 ovarian): 2.09 µM
- TGI (OVCAR-5 ovarian): 3.66 µM
- GI50 (SK-MEL-28 melanoma): 2.01 µM
- TGI (SK-MEL-28 melanoma): 3.51 µM
- GI50 (SR leukemia): 0.236 µM
- TGI (SR leukemia): 0.591 µM
- GI50 (UACC-257 melanoma): 1.93 µM
- TGI (UACC-257 melanoma): 3.48 µM

Compound: C/C(=C\C(=N\N=C(N)N)c1ccc(Cl)cc1)c1ccc(Cl)cc1
- GI50 (A549 NSCLC): 0.424 µM
- TGI (A549 NSCLC): 1.56 µM
- GI50 (ACHN renal): 0.0424 µM
- TGI (ACHN renal): 1.51 µM
- GI50 (CCRF-CEM leukemia): 0.112 µM
- TGI (CCRF-CEM leukemia): 1.94 µM
- GI50 (COLO 205 colon): 0.0198 µM
- TGI (COLO 205 colon): 0.0343 µM
- GI50 (DU-145 prostate): 0.146 µM
- TGI (DU-145 prostate): 1.5 µM
- GI50 (HCT-116 colon): 0.251 µM
- TGI (HCT-116 colon): 0.712 µM
- GI50 (HL-60(TB) leukemia): 2.03 µM
- TGI (HL-60(TB) leukemia): 3.78 µM
- GI50 (HOP-62 NSCLC): 0.0454 µM
- TGI (HOP-62 NSCLC): 1.62 µM
- GI50 (HOP-92 NSCLC): 0.918 µM
- TGI (HOP-92 NSCLC): 2.31 µM
- GI50 (HS 578T breast): 2.08 µM
- TGI (HS 578T breast): 4.55 µM
- GI50 (KM12 colon): 1.35 µM
- TGI (KM12 colon): 2.69 µM
- GI50 (MOLT-4 leukemia): 0.276 µM
- TGI (MOLT-4 leukemia): 0.95 µM
- GI50 (NCI-H226 lung): 2.17 µM
- TGI (NCI-H226 lung): 4.75 µM
- GI50 (NCI-H460 lung): 1.3 µM
- TGI (NCI-H460 lung): 2.66 µM
- GI50 (OVCAR-3 ovarian): 1.72 µM
- TGI (OVCAR-3 ovarian): 3.21 µM
- GI50 (OVCAR-8 ovarian): 1.18 µM
- TGI (OVCAR-8 ovarian): 2.9 µM
- GI50 (PC-3 prostate): 1.29 µM
- TGI (PC-3 prostate): 2.69 µM
- GI50 (RPMI-8226 leukemia): 2.19 µM
- TGI (RPMI-8226 leukemia): 5.14 µM
- GI50 (RXF 393 renal): 1.71 µM
- TGI (RXF 393 renal): 3.1 µM
- GI50 (SF-268 CNS): 1.37 µM
- TGI (SF-268 CNS): 3.06 µM
- GI50 (SK-OV-3 ovarian): 1.69 µM
- TGI (SK-OV-3 ovarian): 3.08 µM
- GI50 (SNB-75 CNS): 1.48 µM
- TGI (SNB-75 CNS): 2.91 µM
- GI50 (SW-620 colon): 0.47 µM
- TGI (SW-620 colon): 1.73 µM
- GI50 (U251 CNS): 0.924 µM
- TGI (U251 CNS): 2.14 µM
- GI50 (UO-31 renal): 1.44 µM
- TGI (UO-31 renal): 2.85 µM

Compound: Cc1n(Cc2ccc3ccccc3c2)c2ccccc2[n+]1Cc1ccc2ccccc2c1
- GI50 (786-0 renal): 1.75 µM
- TGI (786-0 renal): 3.32 µM
- GI50 (A498 renal): 1.35 µM
- TGI (A498 renal): 2.88 µM
- GI50 (A549 NSCLC): 1.76 µM
- TGI (A549 NSCLC): 3.4 µM
- GI50 (ACHN renal): 2.46 µM
- TGI (ACHN renal): 6.49 µM
- GI50 (DU-145 prostate): 1.63 µM
- TGI (DU-145 prostate): 3.04 µM
- GI50 (HOP-92 NSCLC): 0.0317 µM
- TGI (HOP-92 NSCLC): 2.06 µM
- GI50 (MDA-MB-231 breast): 1.33 µM
- TGI (MDA-MB-231 breast): 2.71 µM
- GI50 (NCI/ADR-RES ovarian): 19.2 µM
- TGI (NCI/ADR-RES ovarian): 87.6 µM
- GI50 (OVCAR-5 ovarian): 1.42 µM
- TGI (OVCAR-5 ovarian): 2.82 µM
- GI50 (RPMI-8226 leukemia): 0.0291 µM
- TGI (RPMI-8226 leukemia): 1.48 µM
- GI50 (SF-539 CNS): 1.53 µM
- TGI (SF-539 CNS): 2.91 µM
- GI50 (SK-MEL-28 melanoma): 1.54 µM
- TGI (SK-MEL-28 melanoma): 3.18 µM
- GI50 (SK-OV-3 ovarian): 1.65 µM
- TGI (SK-OV-3 ovarian): 3.11 µM
- GI50 (SNB-19 CNS): 1.35 µM
- TGI (SNB-19 CNS): 2.77 µM
- GI50 (TK-10 renal): 1.55 µM
- TGI (TK-10 renal): 3.03 µM
- GI50 (UACC-257 melanoma): 1.24 µM
- TGI (UACC-257 melanoma): 2.79 µM
- GI50 (UO-31 renal): 1.5 µM
- TGI (UO-31 renal): 2.87 µM
